# Measurements: PMC11928319 (Nature Plants, 2025)
# “And” between values parts separate entries of the source, which are not always exact repeats. Equal entries are not always repeated.
# Test system: EFR
# Experiment: Expression of EFR normalized to UBQ5 in roots (RT–qPCR) and pEFR::NLS–3*mVenus reporter
# Assay type: in vivo, Arabidopsis thaliana
# Conditions: timepoint 1h, single samples
# Experimental: Axenic 14-day-old seedlings (see ‘Agar-based cultivation of axenic plants and co-cultivation with bacteria, bacterial supernatants and elicitors’) were submerged in 12 ml of 10 mM MgSO4 supplemented with 1 µM elicitor or bacteria, which were directly harvested from 0.5× TSB plates and resuspended in 10 mM MgSO4. Bacterial concentration was adjusted to OD600 = 1.5, if not indicated differently. For a heat-killed bacterial inoculum, resuspended bacteria were incubated in boiling water for 30 min. […] For co-exposure to flg22 and AtPep1, seedlings were submerged as described for 1 h, residual liquid was removed and the plants were incubated in a cultivation chamber for 4 h prior to harvesting.
# For reverse transcription quantitative PCR (RT–qPCR), roots of eight to ten plants grown on one square plate were pooled for one sample. Frozen roots were homogenized using a TissueLyser II (QIAGEN, 2 × 29 pps for 40 s) with pre-cooled adaptors. RNA was extracted using the Plant RNA Kit (my-Budget) according to the user manual and eluted in 35 µl of elution buffer. RNA concentrations were measured using a spectrometer (Nanodrop OneC Microvolume UV-Vis Spectrophotometer). Complementary DNA was synthesized from 300–500 ng of RNA using the RevertAid H Minus First Strand cDNA Synthesis Kit (ThermoScientific) in a 20-µl reaction according to the user manual. In brief, 1 µl of oligo(dT)18 primer was mixed with RNA in a final volume of 12 µl and incubated at 65 °C for 5 min. Afterwards, 4 µl of 5× Reaction buffer, 2 µl of 10 mM dNTPs, 1 µl of RiboLock RNase Inhibitor (20 U µl^−1) and 1 µl of RevertAid H Minus M-MuLV Reverse Transcriptase (200 U µl^−1) were added, and the reaction was incubated at 42 °C for 60 min followed by heat inactivation at 70 °C for 5 min. cDNA was diluted 1:10 prior to qPCR using the iQ SYBR Green Supermix (Bio-Rad). […]
substance,measurement,setting,value
Ac-SKEKFERTKPHVNVGTIG [elf18],EFR fold_change,Replicate I,1.977 and 2.517 and 1.4157 and 1.558
same,EFR fold_change,Replicate II,1.051 and 1.166 and 0.9721 and 1.1066
same,EFR fold_change,Replicate III,1.492 and 1.557 and 2.228 and 1.3126
